Results from patent USRE42890E1, “Furazanobenzimidazoles” (Basilea Pharmaceutica AG, priority 2003, dated 2011).
Where two headings read alike, the source gives them in different places.

Columns and labels:
Jurkat = assay: MTS proliferation assay, Jurkat; assay type: cell-based, human; conditions: 72 h incubation, read-out: MTS proliferation assay IC 50 Jurkat
Summary of the method: (§1)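 Absorbance at 492 nm after 3 h with MTS reagent gave the proliferation read-out. Before that, cells in RPMI-1640 complete medium (5% or 10% FCS) were treated 72 h with compound at four final concentrations, 0.3 to 10 μM.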

[1] = tested on: adherent cells or suspension cells; assay: Hoechst 33342 nuclear staining (fraction of apoptotic nuclei); assay type: cell-based; design: key: 0 relating to no activity; 1 relating to weak activity comprising less than 70% of the cells; score 2 relating to strong activity comprising more than 70% of the cells
HeLa = assay: MTS proliferation assay, HeLa; assay type: cell-based, human; conditions: 72 h incubation, read-out: MTS proliferation assay IC 50 HeLa
Summary of the method: as §1

HT1080 = assay: MTS proliferation assay, HT1080; assay type: cell-based, human; conditions: HT1080, 72 h incubation, read-out: MTS proliferation assay IC 50 HT1080
Summary of the method: as §1

Jily = assay: MTS proliferation assay, Jily; assay type: cell-based; conditions: 72 h incubation, read-out: MTS proliferation assay IC 50 Jily
Description: Cell lines are cultured in RPMI-1640 tissue culture medium containing either 5% or 10% fetal calf serum, 0.05 mM 2-mercaptoethanol, 2 mM glutamine and penicillin/streptomycin 50 μg/ml (complete medium) (Sigma, Buchs, Switzerland). General growth conditions are 37° C. and 7.5% CO2.
The assay is performed in 96 well tissue culture plates. The cells (range: 1.5*10^3-10^4) are seeded out in 80 μl complete medium 24 h prior to compound treatment. The test compounds are added in 20 μl complete medium containing max 5% DMSO. The final compound concentrations in the assays are 10 μM, 3 μM, 1 μM and 0.3 μM, respectively. The assay plates are incubated for 72 h at culture conditions. The MTS reagent is prepared according to the manufacturer's protocol (Promega G1111). 20 μl MTS reagent are added to each well, the assay plates are quickly spun and incubated for another 3 h at culture conditions. Subsequently, the plates are shortly shaked and absorption measured with a microplate-reader at 492 nm.

MRC5 = assay: MTS proliferation assay, MRC5; assay type: cell-based; conditions: MRC5, 72 h incubation, read-out: MTS proliferation assay IC 50 MRC5
Summary of the method: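 Read-out: MTS absorbance at 492 nm after 3 h reagent incubation. Before that, cells grew 72 h at 37° C/7.5% CO2 with test compounds at final concentrations of 10 μM, 3 μM, 1 μM and 0.3 μM, added 24 h post-seeding.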

| Structure (SMILES) | Hoechst 33342 nuclear staining score ([1]; H460, conc 0.01 μm) | Hoechst 33342 nuclear staining score ([1]; H460, conc 0.1 μm) | Hoechst 33342 nuclear staining score ([1]; H460, conc 1 μm) | Hoechst 33342 nuclear staining score ([1]; HeLa, conc 0.01 μm) | Hoechst 33342 nuclear staining score ([1]; HeLa, conc 0.1 μm) | Hoechst 33342 nuclear staining score ([1]; HeLa, conc 1 μm) | Hoechst 33342 nuclear staining score ([1]; Jily, conc 0.01 μm) | Hoechst 33342 nuclear staining score ([1]; Jily, conc 0.1 μm) | Hoechst 33342 nuclear staining score ([1]; Jily, conc 1 μm) | Hoechst 33342 nuclear staining score ([1]; Jurkat, conc 0.01 μm) | Hoechst 33342 nuclear staining score ([1]; Jurkat, conc 0.1 μm) | Hoechst 33342 nuclear staining score ([1]; Jurkat, conc 1 μm) | Hoechst 33342 nuclear staining score ([1]; MRC5, conc 0.01 μm) | Hoechst 33342 nuclear staining score ([1]; MRC5, conc 0.1 μm) | Hoechst 33342 nuclear staining score ([1]; MRC5, conc 1 μm) | Hoechst 33342 nuclear staining score ([1]; PBLs, conc 0.01 μm) | Hoechst 33342 nuclear staining score ([1]; PBLs, conc 0.1 μm) | Hoechst 33342 nuclear staining score ([1]; PBLs, conc 1 μm) | IC50 (Jily) [nM] | IC50 (HeLa) [nM] | also measured |
| --- | --- | --- | --- | --- | --- | --- | --- | --- | --- | --- | --- | --- | --- | --- | --- | --- | --- | --- | --- | --- | --- |
| CN(C)c1nonc1-c1nc2ccccc2n1CC(=O)c1ccc(Cl)cc1 [Example 4, Dimethyl-{4-[1-(4-chlorophenacyl)-1H-benzimidazol-2-yl]-furazan-3-yl}-amine] | 0 | 0 | 1 (1 relating to weak activity comprising less than 70% of the cells) | 0 | 0 | 2 (score 2 relating to strong activity comprising more than 70% of the cells) | 0 | 0 | 2 (score 2 relating to strong activity comprising more than 70% of the cells) | 0 | 0 | 2 (score 2 relating to strong activity comprising more than 70% of the cells) | 0 | 0 | 2 (score 2 relating to strong activity comprising more than 70% of the cells) | 0 | 0 | 0 | 100 to 1000 | – | IC50 (Jurkat; Homo sapiens): 10 to 100 nM; IC50 (HeLa; Homo sapiens): 100 to 1000 nM; IC50 (HT1080; Homo sapiens, HT-1080): 100 to 1000 nM; IC50 (MRC5; Homo sapiens): 100 to 1000 nM |
| Nc1nonc1-c1nc2ccccc2n1COc1ccc(CO)cc1 [Example 97] | 0 | 0 | 2 (score 2 relating to strong activity comprising more than 70% of the cells) | 0 | 0 | 2 (score 2 relating to strong activity comprising more than 70% of the cells) | 0 | 0 | 2 (score 2 relating to strong activity comprising more than 70% of the cells) | 0 | 0 | 2 (score 2 relating to strong activity comprising more than 70% of the cells) | 0 | 0 | 0 | 0 | 0 | 0 | 100 to 1000 | 100 to 1000 | IC50 (Jurkat): 100 to 1000 nM; IC50 (HT1080): 100 to 1000 nM; IC50 (MRC5): 100 to 1000 nM |
| COc1ccc(C(=O)Cn2c(-c3nonc3NCCC#N)nc3ccccc32)cc1N [Example 69] | 0 | 0 | 2 (score 2 relating to strong activity comprising more than 70% of the cells) | 0 | 0 | 2 (score 2 relating to strong activity comprising more than 70% of the cells) | 0 | 1 (1 relating to weak activity comprising less than 70% of the cells) | 2 (score 2 relating to strong activity comprising more than 70% of the cells) | 0 | 1 (1 relating to weak activity comprising less than 70% of the cells) | 2 (score 2 relating to strong activity comprising more than 70% of the cells) | 0 | 0 | 1 (1 relating to weak activity comprising less than 70% of the cells) | 0 | 0 | 0 | 100 to 1000 | 100 to 1000 | IC50 (Jurkat): 10 to 100 nM; IC50 (HT1080): 100 to 1000 nM; IC50 (MRC5): 100 to 1000 nM |
| Nc1nonc1-c1nc2ccccc2n1COc1ccc(C=O)cc1 [Example 96] | 0 | 0 | 1 (1 relating to weak activity comprising less than 70% of the cells) | 0 | 0 | 2 (score 2 relating to strong activity comprising more than 70% of the cells) | 0 | 0 | 2 (score 2 relating to strong activity comprising more than 70% of the cells) | 0 | 0 | 2 (score 2 relating to strong activity comprising more than 70% of the cells) | 0 | 0 | 0 | 0 | 0 | 0 | 100 to 1000 | 100 to 1000 | IC50 (Jurkat): 100 to 1000 nM; IC50 (HT1080): 100 to 1000 nM; IC50 (MRC5): 100 to 1000 nM |
| Nc1ccc(C(=O)Cn2c(-c3nonc3N)nc3ccccc32)cc1.O=C(O)C(=O)O [Example 62] | 0 | 2 (score 2 relating to strong activity comprising more than 70% of the cells) | 2 (score 2 relating to strong activity comprising more than 70% of the cells) | 0 | 2 (score 2 relating to strong activity comprising more than 70% of the cells) | 2 (score 2 relating to strong activity comprising more than 70% of the cells) | 0 | 2 (score 2 relating to strong activity comprising more than 70% of the cells) | 2 (score 2 relating to strong activity comprising more than 70% of the cells) | 0 | 2 (score 2 relating to strong activity comprising more than 70% of the cells) | 2 (score 2 relating to strong activity comprising more than 70% of the cells) | 0 | 2 (score 2 relating to strong activity comprising more than 70% of the cells) | 2 (score 2 relating to strong activity comprising more than 70% of the cells) | 0 | 0 | 0 | 10 to 100 | 100 to 1000 | IC50 (Jurkat): 10 to 100 nM; IC50 (HT1080): 10 to 100 nM; IC50 (MRC5): 10 to 100 nM |
| CCc1ccc(C(=O)Cn2c(-c3nonc3N)nc3ccccc32)cc1 [Example 55] | 0 | 0 | 2 (score 2 relating to strong activity comprising more than 70% of the cells) | 0 | 0 | 2 (score 2 relating to strong activity comprising more than 70% of the cells) | 0 | 0 | 2 (score 2 relating to strong activity comprising more than 70% of the cells) | 0 | 1 (1 relating to weak activity comprising less than 70% of the cells) | 2 (score 2 relating to strong activity comprising more than 70% of the cells) | 0 | 0 | 0 | 0 | 0 | 0 | 10 to 100 | 100 to 1000 | IC50 (HT1080): 100 to 1000 nM; IC50 (MRC5): 100 to 1000 nM |
